Laboratory results reported in BindingDB's records for patent US20240101552 (Shanghai Pharmaceuticals Holding Co., 2024).

Biological target: T1, LanC-like protein 2 (Homo sapiens, UniProt Q9NS86)
T1 sequence (Q9NS86 whole entry): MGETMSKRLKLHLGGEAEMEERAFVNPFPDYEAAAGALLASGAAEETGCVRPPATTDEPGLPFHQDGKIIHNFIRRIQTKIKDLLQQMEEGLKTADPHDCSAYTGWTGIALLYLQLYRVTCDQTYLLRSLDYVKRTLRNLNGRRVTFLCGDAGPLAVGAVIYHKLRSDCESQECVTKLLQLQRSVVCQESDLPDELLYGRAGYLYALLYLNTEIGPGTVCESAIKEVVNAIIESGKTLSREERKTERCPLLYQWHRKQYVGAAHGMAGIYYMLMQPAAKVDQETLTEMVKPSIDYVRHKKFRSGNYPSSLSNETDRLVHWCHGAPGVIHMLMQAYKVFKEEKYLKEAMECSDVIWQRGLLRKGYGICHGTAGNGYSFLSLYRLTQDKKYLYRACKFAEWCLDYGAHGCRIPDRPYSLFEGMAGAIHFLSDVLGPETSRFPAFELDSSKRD
Experiment: Receptor Binding Assay
Procedure: 1. […] The kinetic parameters of small molecules BT-11 and L-1 to 60 (analytes) binding to LANCL2 (ligand) were determined using BIACORE S200. Data were generated in triplicate in a dose-dependent manner (5-8 titration points) and analyzed to determine binding models (Langmuir, conformational shifts, etc.), real-time association and dissociation constants, and equilibrium dissociation constants. SPR technology allows the validation of specific LANCL2-phytochemical interactions as well as an increased insight into the gold standard of binding mechanisms and rates. Experiments were performed on carboxymethyl polydextrose (CM5) sensor chips by amine-coupled covalent attachment of LANCL2. Data were analyzed with BIACORE S200T200 evaluation software (version 1), so as to determine affinity binding constants (KD) using a 1:1 binding model.

Structure (SMILES) | Kd [µM]
O=C(c1cccc(-c2cn3ccccc3n2)c1)N1CC2CC1CN2C(=O)c1cccc(-c2nc3ccccc3[nH]2)n1 [US20240101552, Compound L-4] | 40
O=C(c1ccnc(Nc2ccccc2)n1)N1CCC2(CC1)CCN(C(=O)c1ccnc(Nc3ccccn3)n1)CC2 [US20240101552, Compound L-98] | 12.2
O=C(N[C@H]1[C@@H]2CN(C(=O)c3cccc(-c4cn5ccccc5n4)c3)C[C@@H]21)c1cccc(-c2cn3ccccc3n2)c1 [US20240101552, Compound L-89] | 2.53
O=C(NC1CCN(C(=O)c2cccc(-c3nc4ccccc4[nH]3)n2)CC1)c1cccc(-c2cn3ccccc3n2)c1 [US20240101552, Compound L-5] | 17
O=C(C1CCCN1C(=O)c1cccc(-c2cn3ccccc3n2)c1)N1CC2CN(c3ccc([N+](=O)[O-])cc3)CC2C1 [US20240101552, Compound L-39] | 6.33
O=C(c1cccc(-c2cn3ccccc3n2)c1)N1CCC2(CC1)CCN(C(=O)c1cccc(-c3nc4ccccc4[nH]3)n1)CC2 [US20240101552, Compound L-3] | 6.92
O=C(NC1CCN(C(=O)c2cccc(-c3nc4ccccc4[nH]3)n2)CC1)c1cccc([N+](=O)[O-])c1 [US20240101552, Compound L-38] | 9.09
O=C(c1cccc(Nc2ccccc2)n1)N1CC2CN(C(=O)c3ccnc(Nc4ccccc4)n3)CC2C1 [US20240101552, Compound L-102] | 29.5
O=C(c1cccc(Nc2ccccc2)n1)N1CCC2(CC1)CCN(C(=O)c1cccc(-c3nc4ccccc4[nH]3)n1)CC2 [US20240101552, Compound L-45] | 8.31
O=C(Nc1ccccc1NC(=O)c1cccc(-c2cn3ccccc3n2)c1)c1cccc(-c2cn3ccccc3n2)c1 [US20240101552, Compound L-1] | 4.46
O=C(NC1C2CN(C(=O)c3cccc(-c4nc5ccccc5[nH]4)n3)CC21)c1ccnc(Nc2ccccn2)n1 [US20240101552, Compound L-25] | 2.01
O=C(NC1C2CN(C(=O)c3cccc(-c4cn5ccccc5n4)c3)CC21)c1cccc(-c2nc3ccccc3[nH]2)n1 [US20240101552, Compound L-2] | 0.719
O=C(N[C@H]1[C@@H]2CN(C(=O)c3cccc(Nc4ccccc4)n3)C[C@@H]21)c1ccnc(Nc2ccccc2)n1 [US20240101552, Compound L-103] | 24.1
O=C(Nc1cccc(-c2cn3ccccc3n2)c1)N1CCN(C(=O)c2cccc(-c3nc4ccccc4[nH]3)n2)CC1 [US20240101552, Compound L-118] | 8.73
O=C(c1cccc(-c2nc3ccccc3[nH]2)n1)N1CC2CN(C(=O)c3cccc(-c4nc5ccccc5[nH]4)n3)CC2C1 [US20240101552, Compound L-10] | 18.4
O=C(NC1CCN(C(=O)c2cccc(-c3nc4ccccc4[nH]3)n2)CC1)c1cccc(Nc2ccccc2)n1 [US20240101552, Compound L-47] | 13.3

Structure (SMILES) | Kd [µM]
O=C(c1cccc(-c2nc3ccccc3[nH]2)n1)N1CC2CN(C(=O)c3ccnc(N4CCOCC4)n3)CC2C1 [US20240101552, Compound L-16] | 84.9
O=C(NC1CCN(C(=O)c2ccnc(Nc3ccccc3)n2)CC1)c1ccnc(Nc2ccccn2)n1 [US20240101552, Compound L-99] | 5.41
O=C(c1cccc([N+](=O)[O-])c1)N1CCC2(CC1)CCN(C(=O)c1cccc(-c3nc4ccccc4[nH]3)n1)CC2 [US20240101552, Compound L-40] | 3.21
O=C(c1cccc(-c2nc3ccccc3[nH]2)n1)N1CCC2(CC1)CCN(C(=O)c1ccnc(N3CCOCC3)n1)CC2 [US20240101552, Compound L-15] | 2.3
O=C(N[C@H]1[C@@H]2CN(C(=O)c3cccnc3Oc3ccccc3)C[C@@H]21)c1cccc(-c2cn3ccccc3n2)c1 [US20240101552, Compound L-105] | 17.5
O=C(N[C@H]1[C@@H]2CN(C(=O)c3cccc(Nc4ccccc4)n3)C[C@@H]21)c1cccc(-c2cn3ccccc3n2)c1 [US20240101552, Compound L-90] | 9.5
O=C(c1cccc(-c2nc3ccccc3[nH]2)n1)N1CC2CN(C(=O)c3ccnc(Nc4ccccc4)n3)CC2C1 [US20240101552, Compound L-24] | 57.3
O=C(c1cccc(-c2cn3ccccc3n2)c1)N1CC2CN(C(=O)c3ccnc(Nc4ccccc4)n3)CC2C1 [US20240101552, Compound L-43] | 49.2
O=C(c1cccc([N+](=O)[O-])c1)N1CC2CN(C(=O)c3cccc(-c4nc5ccccc5[nH]4)n3)CC2C1 [US20240101552, Compound L-41] | 27.6
O=C(c1cccc(Nc2ccccc2)n1)N1CCC2(CCN(C(=O)c3cccc(-c4nc5ccccc5[nH]4)n3)CC2)C1 [US20240101552, Compound L-61] | 23.2
O=C(c1cccc(-c2cn3ccccc3n2)c1)N1CC2CN(C(=O)c3cccc(-c4nc5ccccc5[nH]4)n3)CC2C1 [US20240101552, Compound L-55] | 16.8
O=C(N[C@H]1[C@@H]2CN(C(=O)c3n[nH]c4ccccc34)C[C@@H]21)c1cccc(-c2cn3ccccc3n2)c1 [US20240101552, Compound L-106] | 4.32
O=C(c1ccnc(Nc2ccccn2)c1)N1CC2CN(C(=O)c3cccc(-c4nc5ccccc5[nH]4)n3)CC2C1 [US20240101552, Compound L-53] | 36
O=C(c1cccc(-c2nc3ccccc3[nH]2)n1)N1CC2CN(C(=O)c3ccnc(Nc4ccccn4)n3)CC2C1 [US20240101552, Compound L-26] | 65.8
O=C(NC1CCN(C(=O)c2cccc(Nc3ccccc3)n2)CC1)c1cccc(Nc2ccccc2)n1 [US20240101552, Compound L-114] | 10.8
